Source: patent publication US20260262643A1, “HERBICIDAL BENZOXAZINES” (FMC CORPORATION, priority 2022, published 2026)

What was measured:
barnyardgrass [1] = test: Test C preemergence; assay type: in vivo, Echinochloa crusgalli; details: for Barnyardgrass plant response rating: 500 g ai/ha, preemergence, 0 to 100 scale (0 no effect, 100 complete control); for Plant response rating, Barnyardgrass: Preemergence, 125 g ai/ha, 0 to 100 scale, 0 no effect, 100 complete control
Procedure, shortened: (§1)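 Greenhouse herbicide screen, 10-day duration. Test chemicals in solvent/surfactant blend were sprayed onto soil at sowing (pre) or onto 2–10 cm seedlings at one to two leaves (post); injury scored visually against controls, 0 no effect to 100 complete control.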

blackgrass [2] = test: Test C preemergence; assay type: in vivo, Alopecurus myosuroides; details: for Blackgrass plant response rating: 500 g ai/ha, preemergence, 0 to 100 scale (0 no effect, 100 complete control); for Plant response rating, Blackgrass: Preemergence, 125 g ai/ha, 0 to 100 scale, 0 no effect, 100 complete control
Procedure, shortened: as §1

corn [3] = test: Test C preemergence; assay type: in vivo, Zea mays; details: for Corn plant response rating: 500 g ai/ha, preemergence, 0 to 100 scale (0 no effect, 100 complete control); for Plant response rating, Corn: Preemergence, 125 g ai/ha, 0 to 100 scale, 0 no effect, 100 complete control
Procedure, shortened: as §1

green foxtail [4] = test: Test C preemergence; assay type: in vivo, Setaria viridis; details: for Foxtail, Green plant response rating: 500 g ai/ha, preemergence, 0 to 100 scale (0 no effect, 100 complete control); for Plant response rating, Foxtail, Green: Preemergence, 125 g ai/ha, 0 to 100 scale, 0 no effect, 100 complete control
Procedure, shortened: as §1

kochia [5] = test: Test C preemergence; assay type: in vivo, Bassia scoparia; details: for Kochia plant response rating: 500 g ai/ha, preemergence, 0 to 100 scale (0 no effect, 100 complete control); for Plant response rating, Kochia: Preemergence, 125 g ai/ha, 0 to 100 scale, 0 no effect, 100 complete control
Procedure, shortened: as §1

oat, wild [6] = test: Test C preemergence; assay type: in vivo, Avena fatua; details: for Oat, Wild plant response rating: 500 g ai/ha, preemergence, 0 to 100 scale (0 no effect, 100 complete control); for Plant response rating, Oat, Wild: Preemergence, 125 g ai/ha, 0 to 100 scale, 0 no effect, 100 complete control
Procedure, shortened: as §1

pigweed, palmer [7] = test: Test C preemergence; assay type: in vivo, Amaranthus palmeri; details: for Pigweed, Palmer plant response rating: 500 g ai/ha, preemergence, 0 to 100 scale (0 no effect, 100 complete control); for Plant response rating, Pigweed, Palmer: Preemergence, 125 g ai/ha, 0 to 100 scale, 0 no effect, 100 complete control
Procedure, shortened: as §1

ragweed [8] = test: Test C preemergence; assay type: in vivo, Ambrosia artemisiifolia; details: for Ragweed plant response rating: 500 g ai/ha, preemergence, 0 to 100 scale (0 no effect, 100 complete control); for Plant response rating, Ragweed: Preemergence, 125 g ai/ha, 0 to 100 scale, 0 no effect, 100 complete control
Procedure, shortened: as §1

ryegrass, Italian [9] = test: Test C preemergence; assay type: in vivo, Lolium multiflorum; details: for Ryegrass, Italian plant response rating: 500 g ai/ha, preemergence, 0 to 100 scale (0 no effect, 100 complete control); for Plant response rating, Ryegrass, Italian: Preemergence, 125 g ai/ha, 0 to 100 scale, 0 no effect, 100 complete control
Procedure, shortened: as §1

soybean [10] = test: Test C preemergence; assay type: in vivo, Glycine max; details: for Soybean plant response rating: 500 g ai/ha, preemergence, 0 to 100 scale (0 no effect, 100 complete control); for Plant response rating, Soybean: Preemergence, 125 g ai/ha, 0 to 100 scale, 0 no effect, 100 complete control
Procedure, shortened: as §1

wheat [11] = test: Test C preemergence; assay type: in vivo, Triticum aestivum; details: for Wheat plant response rating: 500 g ai/ha, preemergence, 0 to 100 scale (0 no effect, 100 complete control); for Plant response rating, Wheat: Preemergence, 125 g ai/ha, 0 to 100 scale, 0 no effect, 100 complete control
Procedure, shortened: as §1

barnyardgrass [12] = test: Test C postemergence; assay type: in vivo, Echinochloa crusgalli; details: 10 days, 0 to 100 scale (0 no effect, 100 complete control)
Procedure, shortened: as §1

blackgrass [13] = test: Test C postemergence; assay type: in vivo, Alopecurus myosuroides; details: 10 days, 0 to 100 scale (0 no effect, 100 complete control)
Procedure, shortened: as §1

corn [14] = test: Test C postemergence; assay type: in vivo, Zea mays; details: 10 days, 0 to 100 scale (0 no effect, 100 complete control)
Procedure, shortened: as §1

green foxtail [15] = test: Test C postemergence; assay type: in vivo, Setaria viridis; details: 10 days, 0 to 100 scale (0 no effect, 100 complete control)
Procedure, shortened: as §1

kochia [16] = test: Test C postemergence; assay type: in vivo, Bassia scoparia; details: 10 days, 0 to 100 scale (0 no effect, 100 complete control)
Procedure, shortened: as §1

oat, wild [17] = test: Test C postemergence; assay type: in vivo, Avena fatua; details: 10 days, 0 to 100 scale (0 no effect, 100 complete control)
Procedure, shortened: as §1

pigweed, palmer [18] = test: Test C postemergence; assay type: in vivo, Amaranthus palmeri; details: 10 days, 0 to 100 scale (0 no effect, 100 complete control)
Procedure, shortened: as §1

ragweed [19] = test: Test C postemergence; assay type: in vivo, Ambrosia artemisiifolia; details: Postemergence, 125 g ai/ha; 0 to 100 scale (0 no effect, 100 complete control), 10 days
Procedure, shortened: as §1

ryegrass, Italian [20] = test: Test C postemergence; assay type: in vivo, Lolium multiflorum; details: Postemergence, 125 g ai/ha; 0 to 100 scale (0 no effect, 100 complete control), 10 days
Procedure, shortened: as §1

soybean [21] = test: Test C postemergence; assay type: in vivo, Glycine max; details: Postemergence, 125 g ai/ha; 0 to 100 scale (0 no effect, 100 complete control), 10 days
Procedure, shortened: as §1

wheat [22] = test: Test C postemergence; assay type: in vivo, Triticum aestivum; details: Postemergence, 125 g ai/ha; 0 to 100 scale (0 no effect, 100 complete control), 10 days
Procedure, shortened: as §1

galium = test: Test C postemergence; assay type: in vivo, Galium aparine; details: 10 days, 0 to 100 scale (0 no effect, 100 complete control)
Procedure, shortened: as §1

horseweed = test: Test C postemergence; assay type: in vivo, Erigeron canadensis; details: 10 days, 0 to 100 scale (0 no effect, 100 complete control)
Procedure, shortened: as §1

barnyardgrass [23] = test: Test D flooded paddy test; assay type: in vivo, Echinochloa crus-galli; details: 250 g ai/ha, applied to paddy water, visual rating after 13 to 14 days, scale 0 to 100 (0 no effect, 100 complete control)
Procedure, shortened: (§2)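 2-leaf plants; flood 3 cm above soil; compound dosed into paddy water; greenhouse 13–14 d; visual rating vs controls, 0–100 (100 = complete control); dash = not tested.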

ducksalad = test: Test D flooded paddy test; assay type: in vivo, Heteranthera limosa; details: 250 g ai/ha, applied to paddy water, visual rating after 13 to 14 days, scale 0 to 100 (0 no effect, 100 complete control)
Procedure, shortened: as §2

rice = test: Test D flooded paddy test; assay type: in vivo, Oryza sativa; details: 250 g ai/ha, applied to paddy water, visual rating after 13 to 14 days, scale 0 to 100 (0 no effect, 100 complete control)
Procedure, shortened: as §2

sedge, umbrella = test: Test D flooded paddy test; assay type: in vivo, Cyperus difformis; details: 250 g ai/ha, applied to paddy water, visual rating after 13 to 14 days, scale 0 to 100 (0 no effect, 100 complete control)
Procedure, shortened: as §2

Structure (SMILES): Cc1ccc(-n2cnc(CS(C)(=N)=O)n2)cc1C(=O)N1C[C@H](C)Oc2c(Cl)cccc21 (stereo partly shown) [Compound 403]
- Barnyardgrass plant response rating (barnyardgrass [1]): 70
- Plant response rating, Barnyardgrass (barnyardgrass [1]): 40
- Blackgrass plant response rating (blackgrass [2]): 80
- Plant response rating, Blackgrass (blackgrass [2]): 60
- Corn plant response rating (corn [3]): 50
- Plant response rating, Corn (corn [3]): 10
- Foxtail, Green plant response rating (green foxtail [4]): 100
- Plant response rating, Foxtail, Green (green foxtail [4]): 90
- Kochia plant response rating (kochia [5]): 100
- Plant response rating, Kochia (kochia [5]): 60
- Oat, Wild plant response rating (oat, wild [6]): 40
- Plant response rating, Oat, Wild (oat, wild [6]): 0
- Pigweed, Palmer plant response rating (pigweed, palmer [7]): 100
- Plant response rating, Pigweed, Palmer (pigweed, palmer [7]): 30
- Ragweed plant response rating (ragweed [8]): 80
- Plant response rating, Ragweed (ragweed [8]): 30
- Ryegrass, Italian plant response rating (ryegrass, Italian [9]): 90
- Plant response rating, Ryegrass, Italian (ryegrass, Italian [9]): 40
- Soybean plant response rating (soybean [10]): 90
- Plant response rating, Soybean (soybean [10]): 80
- Wheat plant response rating (wheat [11]): 50
- Plant response rating, Wheat (wheat [11]): 0
- Plant response rating, Barnyardgrass (barnyardgrass [12]; 500 g ai/ha, postemergence): 70
- Plant response rating, Barnyardgrass (barnyardgrass [12]; Postemergence, 125 g ai/ha): 30
- Plant response rating, Blackgrass (blackgrass [13]; 500 g ai/ha, postemergence): 80
- Plant response rating, Blackgrass (blackgrass [13]; Postemergence, 125 g ai/ha): 20
- Plant response rating, Corn (corn [14]; 500 g ai/ha, postemergence): 80
- Plant response rating, Corn (corn [14]; Postemergence, 125 g ai/ha): 20
- Plant response rating, Foxtail, Green (green foxtail [15]; 500 g ai/ha, postemergence): 90
- Plant response rating, Foxtail, Green (green foxtail [15]; Postemergence, 125 g ai/ha): 50
- Plant response rating, Kochia (kochia [16]; 500 g ai/ha, postemergence): 80
- Plant response rating, Kochia (kochia [16]; Postemergence, 125 g ai/ha): 80
- Plant response rating, Oat, Wild (oat, wild [17]; 500 g ai/ha, postemergence): 90
- Plant response rating, Oat, Wild (oat, wild [17]; Postemergence, 125 g ai/ha): 30
- Plant response rating, Pigweed, Palmer (pigweed, palmer [18]; 500 g ai/ha, postemergence): 100
- Plant response rating, Pigweed, Palmer (pigweed, palmer [18]; Postemergence, 125 g ai/ha): 90
- Plant response rating, Ragweed (ragweed [19]): 70
- Plant response rating, Ryegrass, Italian (ryegrass, Italian [20]): 50
- Plant response rating, Soybean (soybean [21]): 100
- Plant response rating, Wheat (wheat [22]): 20
- Plant response rating, Galium (galium; 500 g ai/ha, postemergence): 100
- Plant response rating, Galium (galium; Postemergence, 125 g ai/ha): 100
- Plant response rating, Horseweed (horseweed; 500 g ai/ha, postemergence): 60
- Plant response rating, Barnyardgrass (Flood) (barnyardgrass [23]): 0
- Plant response rating, Ducksalad (Flood) (ducksalad): 50
- Plant response rating, Rice (Flood) (rice): 0
- Plant response rating, Sedge, Umbrella (Flood) (sedge, umbrella): 45

Structure (SMILES): COC[C@H]1CN(C(=O)c2cc(-n3cnc(C(C)(C)O)n3)ccc2OC)c2cccc(Cl)c2O1 [Compound 408]
- Barnyardgrass plant response rating (barnyardgrass [1]): 100
- Plant response rating, Barnyardgrass (barnyardgrass [1]): 60
- Blackgrass plant response rating (blackgrass [2]): 80
- Plant response rating, Blackgrass (blackgrass [2]): 10
- Corn plant response rating (corn [3]): 60
- Plant response rating, Corn (corn [3]): 0
- Foxtail, Green plant response rating (green foxtail [4]): 100
- Plant response rating, Foxtail, Green (green foxtail [4]): 100
- Kochia plant response rating (kochia [5]): 100
- Plant response rating, Kochia (kochia [5]): 70
- Oat, Wild plant response rating (oat, wild [6]): 60
- Plant response rating, Oat, Wild (oat, wild [6]): 30
- Pigweed, Palmer plant response rating (pigweed, palmer [7]): 100
- Plant response rating, Pigweed, Palmer (pigweed, palmer [7]): 100
- Ragweed plant response rating (ragweed [8]): 90
- Plant response rating, Ragweed (ragweed [8]): 60
- Ryegrass, Italian plant response rating (ryegrass, Italian [9]): 80
- Plant response rating, Ryegrass, Italian (ryegrass, Italian [9]): 60
- Soybean plant response rating (soybean [10]): 100
- Plant response rating, Soybean (soybean [10]): 80
- Wheat plant response rating (wheat [11]): 60
- Plant response rating, Wheat (wheat [11]): 20
- Plant response rating, Barnyardgrass (barnyardgrass [12]; 500 g ai/ha, postemergence): 60
- Plant response rating, Barnyardgrass (barnyardgrass [12]; Postemergence, 125 g ai/ha): 10
- Plant response rating, Blackgrass (blackgrass [13]; 500 g ai/ha, postemergence): 70
- Plant response rating, Blackgrass (blackgrass [13]; Postemergence, 125 g ai/ha): 0
- Plant response rating, Corn (corn [14]; 500 g ai/ha, postemergence): 80
- Plant response rating, Corn (corn [14]; Postemergence, 125 g ai/ha): 10
- Plant response rating, Foxtail, Green (green foxtail [15]; 500 g ai/ha, postemergence): 60
- Plant response rating, Foxtail, Green (green foxtail [15]; Postemergence, 125 g ai/ha): 20
- Plant response rating, Kochia (kochia [16]; 500 g ai/ha, postemergence): 90
- Plant response rating, Kochia (kochia [16]; Postemergence, 125 g ai/ha): 70
- Plant response rating, Oat, Wild (oat, wild [17]; 500 g ai/ha, postemergence): 90
- Plant response rating, Oat, Wild (oat, wild [17]; Postemergence, 125 g ai/ha): 30
- Plant response rating, Pigweed, Palmer (pigweed, palmer [18]; 500 g ai/ha, postemergence): 80
- Plant response rating, Pigweed, Palmer (pigweed, palmer [18]; Postemergence, 125 g ai/ha): 80
- Plant response rating, Ragweed (ragweed [19]): 50
- Plant response rating, Ryegrass, Italian (ryegrass, Italian [20]): 70
- Plant response rating, Soybean (soybean [21]): 100
- Plant response rating, Wheat (wheat [22]): 30
- Plant response rating, Galium (galium; Postemergence, 125 g ai/ha): 100
- Plant response rating, Horseweed (horseweed; 500 g ai/ha, postemergence): 60
- Plant response rating, Horseweed (horseweed; Postemergence, 125 g ai/ha): 0
- Plant response rating, Barnyardgrass (Flood) (barnyardgrass [23]): 10
- Plant response rating, Ducksalad (Flood) (ducksalad): 90
- Plant response rating, Rice (Flood) (rice): 15
- Plant response rating, Sedge, Umbrella (Flood) (sedge, umbrella): 98
